Active and inactive are the calls of the source. The rule behind the calls is not given here.
How the values were obtained:
[1] = biological target: T1, Serine/threonine-protein kinase D3 (Homo sapiens) (UniProt O94806); assay: Inhibition of PKD3 in human PBMC at 1 uM
T1 sequence (whole entry): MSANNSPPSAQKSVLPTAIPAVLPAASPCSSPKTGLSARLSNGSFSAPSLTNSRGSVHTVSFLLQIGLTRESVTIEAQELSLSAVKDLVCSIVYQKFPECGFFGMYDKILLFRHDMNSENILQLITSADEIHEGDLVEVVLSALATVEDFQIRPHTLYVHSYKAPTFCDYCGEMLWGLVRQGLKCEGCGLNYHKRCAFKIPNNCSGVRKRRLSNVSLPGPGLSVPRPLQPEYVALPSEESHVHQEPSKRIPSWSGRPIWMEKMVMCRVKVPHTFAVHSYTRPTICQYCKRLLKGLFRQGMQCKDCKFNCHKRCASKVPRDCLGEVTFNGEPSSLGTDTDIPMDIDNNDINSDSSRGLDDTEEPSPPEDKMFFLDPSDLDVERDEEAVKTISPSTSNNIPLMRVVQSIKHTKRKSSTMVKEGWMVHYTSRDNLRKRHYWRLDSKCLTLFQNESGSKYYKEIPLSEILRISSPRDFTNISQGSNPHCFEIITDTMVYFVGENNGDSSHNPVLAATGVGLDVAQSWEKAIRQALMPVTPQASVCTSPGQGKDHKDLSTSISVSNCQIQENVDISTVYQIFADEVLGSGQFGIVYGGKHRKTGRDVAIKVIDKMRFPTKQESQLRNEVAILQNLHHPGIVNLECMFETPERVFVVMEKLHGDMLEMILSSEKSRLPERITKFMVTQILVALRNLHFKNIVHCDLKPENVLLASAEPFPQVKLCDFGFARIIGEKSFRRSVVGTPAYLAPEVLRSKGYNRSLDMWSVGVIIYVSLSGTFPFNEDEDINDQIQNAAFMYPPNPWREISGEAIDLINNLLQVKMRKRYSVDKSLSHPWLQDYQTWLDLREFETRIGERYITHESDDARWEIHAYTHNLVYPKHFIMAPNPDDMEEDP

[2] = biological target: Adenosine receptor A2a (Homo sapiens) (UniProt P29274); assay: Agonist activity at recombinant human adenosine A2A receptor expressed in HEK293 cells up to 10 uM after 10 mins by cAMP assay; format: functional, cell-based
Chain of Adenosine receptor A2a (Homo sapiens) (P29274 whole entry): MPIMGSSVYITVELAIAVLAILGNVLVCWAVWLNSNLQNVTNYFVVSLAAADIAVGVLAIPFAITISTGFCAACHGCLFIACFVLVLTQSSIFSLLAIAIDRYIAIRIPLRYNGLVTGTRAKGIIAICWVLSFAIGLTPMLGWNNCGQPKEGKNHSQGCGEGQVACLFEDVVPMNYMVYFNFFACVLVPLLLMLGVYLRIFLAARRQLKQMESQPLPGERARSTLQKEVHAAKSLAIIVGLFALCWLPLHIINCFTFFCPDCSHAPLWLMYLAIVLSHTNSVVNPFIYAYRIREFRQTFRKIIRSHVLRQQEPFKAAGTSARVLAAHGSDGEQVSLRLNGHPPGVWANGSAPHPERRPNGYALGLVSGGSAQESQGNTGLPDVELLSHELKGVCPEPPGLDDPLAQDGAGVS

[3] = biological target: 5-hydroxytryptamine receptor 2B (Homo sapiens) (UniProt P41595); assay: Agonist activity at recombinant human 5-HT2B receptor expressed in CHOK1 cells assessed as induction of IP1 accumulation up to 10 uM after 30 mins by HTRF assay; format: functional, cell-based
Chain of 5-hydroxytryptamine receptor 2B (Homo sapiens) (P41595 whole entry): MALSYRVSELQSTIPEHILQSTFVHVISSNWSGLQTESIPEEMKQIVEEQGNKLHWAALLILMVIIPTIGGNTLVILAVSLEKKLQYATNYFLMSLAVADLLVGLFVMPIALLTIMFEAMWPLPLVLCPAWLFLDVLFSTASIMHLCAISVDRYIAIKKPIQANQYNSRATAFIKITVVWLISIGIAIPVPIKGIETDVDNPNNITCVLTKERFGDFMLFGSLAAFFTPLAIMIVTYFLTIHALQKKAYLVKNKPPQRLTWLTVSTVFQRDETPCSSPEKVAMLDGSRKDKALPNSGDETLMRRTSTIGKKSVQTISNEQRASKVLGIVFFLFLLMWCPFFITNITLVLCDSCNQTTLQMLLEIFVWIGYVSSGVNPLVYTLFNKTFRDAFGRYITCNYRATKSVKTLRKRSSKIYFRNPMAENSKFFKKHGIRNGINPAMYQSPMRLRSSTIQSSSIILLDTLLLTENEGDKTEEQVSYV

[4] = biological target: T2, Adenosine receptor A1 (Homo sapiens) (UniProt P30542); assay: Antagonist activity at recombinant human adenosine A1 receptor expressed in mouse BA/F3 cells assessed as inhibition of CPA-induced calcium flux up to 10 uM by spectrophotometric analysis; format: functional, cell-based
T2 sequence (whole entry): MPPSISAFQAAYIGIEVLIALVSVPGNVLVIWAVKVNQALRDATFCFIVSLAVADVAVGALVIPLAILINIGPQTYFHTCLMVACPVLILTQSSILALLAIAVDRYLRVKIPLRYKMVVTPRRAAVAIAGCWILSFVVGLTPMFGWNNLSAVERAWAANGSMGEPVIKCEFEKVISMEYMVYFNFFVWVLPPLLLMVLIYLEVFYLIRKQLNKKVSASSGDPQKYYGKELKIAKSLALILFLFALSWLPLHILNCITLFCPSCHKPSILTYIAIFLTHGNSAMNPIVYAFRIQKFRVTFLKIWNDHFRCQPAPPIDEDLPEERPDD

[5] = biological target: Adenosine receptor A2a (Homo sapiens) (UniProt P29274); assay: Antagonist activity at recombinant human adenosine A2A receptor expressed in HEK293 cells up to 10 uM; format: cell-based
[6] = biological target: T3, Tyrosine-protein kinase JAK3 (Homo sapiens) (UniProt P52333); assay: Inhibition of JAK3 in human PBMC at 1 uM
T3 sequence (whole entry): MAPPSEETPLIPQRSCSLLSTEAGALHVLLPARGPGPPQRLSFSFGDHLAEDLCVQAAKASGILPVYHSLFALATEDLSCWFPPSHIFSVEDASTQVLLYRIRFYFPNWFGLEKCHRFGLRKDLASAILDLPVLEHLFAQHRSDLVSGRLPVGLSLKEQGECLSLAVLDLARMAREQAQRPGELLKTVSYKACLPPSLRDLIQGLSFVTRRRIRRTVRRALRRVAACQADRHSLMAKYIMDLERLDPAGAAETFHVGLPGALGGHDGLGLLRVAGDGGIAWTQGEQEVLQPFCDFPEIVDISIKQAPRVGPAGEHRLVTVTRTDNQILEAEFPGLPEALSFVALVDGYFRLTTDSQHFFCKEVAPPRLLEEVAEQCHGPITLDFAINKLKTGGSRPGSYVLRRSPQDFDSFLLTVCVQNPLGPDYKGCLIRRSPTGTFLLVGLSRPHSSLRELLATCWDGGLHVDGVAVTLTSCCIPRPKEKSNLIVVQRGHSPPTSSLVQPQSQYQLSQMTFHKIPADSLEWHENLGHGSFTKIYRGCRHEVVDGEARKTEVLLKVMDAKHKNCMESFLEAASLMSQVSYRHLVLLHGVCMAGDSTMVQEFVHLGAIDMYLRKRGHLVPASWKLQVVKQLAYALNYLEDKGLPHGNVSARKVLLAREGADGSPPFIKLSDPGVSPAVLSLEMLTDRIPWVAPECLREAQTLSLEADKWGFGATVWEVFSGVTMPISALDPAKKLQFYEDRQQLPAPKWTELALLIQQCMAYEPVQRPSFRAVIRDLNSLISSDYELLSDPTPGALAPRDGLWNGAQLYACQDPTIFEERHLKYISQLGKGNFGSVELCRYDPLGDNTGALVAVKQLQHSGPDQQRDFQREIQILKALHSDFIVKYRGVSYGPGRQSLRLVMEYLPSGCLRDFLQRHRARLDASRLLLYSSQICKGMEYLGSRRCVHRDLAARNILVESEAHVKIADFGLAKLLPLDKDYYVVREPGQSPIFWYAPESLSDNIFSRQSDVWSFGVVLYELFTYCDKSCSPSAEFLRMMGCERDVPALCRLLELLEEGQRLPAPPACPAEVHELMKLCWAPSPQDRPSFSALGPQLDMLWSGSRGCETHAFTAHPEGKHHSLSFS

## Cc1cccc(-c2cc(N)nc3[nH]cc(C#N)c23)c1
[1]
  inhibition: > 35%
[2]
  Activity: inactive
[3]
  Activity: inactive
[4]
  inhibition: inactive
[5]
  inhibition: inactive
[6]
  inhibition: > 60%
